# Laboratory results: ChEMBL document CHEMBL5523727, “Discovery of KT-413, a Targeted Protein Degrader of IRAK4 and IMiD Substrates Targeting MYD88 Mutant Diffuse Large B-Cell Lymphoma” (J Med Chem, 2024)
# Activity calls are given as the source filed them. The calls are words filed in the database; no cut-off is given here.
# Legend:
# [1] = Metabolic stability in Non human primate liver microsomes assessed as intrinsic clearance; type: ADME, Microsome; settings: primates, read-out: CLH
# [2] = Half life in dog at 0.2 mg/kg, iv by LC-MS/MS analysis; type: ADME, organism-based, Canis lupus familiaris; settings: in vivo
# [3] = AUC in dog at 2.1 mg/kg, po by LC-MS/MS analysis; type: ADME, organism-based, Canis lupus familiaris; settings: in vivo
# [4] = Clearance in Non human primate at 0.2 mg/kg, iv by LC-MS/MS analysis; type: ADME, organism-based; settings: primates, in vivo
# [5] = Half life in mouse at 2 mg/kg, iv by LC-MS/MS analysis; type: ADME, organism-based; settings: in vivo
# [6] = system: OCI-Ly10; experiment: Effect on GSPT1 expression in human OCI-Ly10 at 60 nM measured after 2 to 8 hrs by TMT based quantitative proteomics analysis; type: functional, cell-based; settings: time 2-8 hrs
# [7] = target: T1, Protein cereblon/Interleukin-1 receptor-associated kinase 4 (Homo sapiens, UniProt Q9NWZ3+Q96SW2); experiment: PROTAC activity at CRBN/IRAK4 in human OCI-Ly10 cells assessed as maximum degradation at 41 nM measured after 24 hrs; type: cell-based
# Target sequence in this assay (Q96SW2 whole entry, looked up): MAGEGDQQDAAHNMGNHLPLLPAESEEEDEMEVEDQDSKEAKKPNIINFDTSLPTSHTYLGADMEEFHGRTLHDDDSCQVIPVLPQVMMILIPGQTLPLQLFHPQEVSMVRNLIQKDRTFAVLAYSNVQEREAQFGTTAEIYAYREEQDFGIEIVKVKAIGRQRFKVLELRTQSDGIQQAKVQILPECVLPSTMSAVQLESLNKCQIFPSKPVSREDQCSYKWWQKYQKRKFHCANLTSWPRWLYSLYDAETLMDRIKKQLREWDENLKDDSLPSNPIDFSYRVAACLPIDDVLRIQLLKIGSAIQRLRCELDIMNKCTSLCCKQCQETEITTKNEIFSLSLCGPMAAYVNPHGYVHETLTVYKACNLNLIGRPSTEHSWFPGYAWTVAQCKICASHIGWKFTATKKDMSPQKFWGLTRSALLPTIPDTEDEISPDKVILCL
# Target sequence in this assay (Q9NWZ3 whole entry, looked up): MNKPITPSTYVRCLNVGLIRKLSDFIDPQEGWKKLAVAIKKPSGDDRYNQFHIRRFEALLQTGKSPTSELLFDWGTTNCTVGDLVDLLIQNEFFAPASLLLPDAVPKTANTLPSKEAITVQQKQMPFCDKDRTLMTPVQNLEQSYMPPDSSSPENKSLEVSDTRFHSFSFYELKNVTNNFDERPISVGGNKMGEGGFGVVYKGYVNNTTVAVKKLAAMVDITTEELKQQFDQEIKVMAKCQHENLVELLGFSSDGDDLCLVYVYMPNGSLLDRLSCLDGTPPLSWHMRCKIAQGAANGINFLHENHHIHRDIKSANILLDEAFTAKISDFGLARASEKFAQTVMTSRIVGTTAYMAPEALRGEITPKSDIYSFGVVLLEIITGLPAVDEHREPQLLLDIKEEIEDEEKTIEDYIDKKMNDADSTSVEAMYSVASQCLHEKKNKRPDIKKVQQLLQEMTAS
# [8] = system: PBMC; experiment: Effect on IKZF1 expression in human PBMC cells at 100 nM measured after 24 hrs by TMT based quantitative proteomics analysis; type: functional, cell-based
# [9] = system: PBMC; experiment: Effect on ZFP276 expression in human PBMC cells at 100 nM measured after 24 hrs by TMT based quantitative proteomics analysis; type: functional, cell-based
# [10] = system: OCI-Ly10; experiment: Antitumor activity in human patient derived OCI-LY10 cells xenografted in NPG mouse bearing MYD88-mutated DLBCL tumor containing a CD79 co-mutation model assessed as tumor growth regression at 20 mg/kg, po QD dosed measured after 3 to 5 days relative to control; type: functional; settings: time 3-5 day
# [11] = system: OCI-Ly10; experiment: Antiproliferative activity against human OCI-Ly10 cells measured after 4 days by CellTiter-Glo Luminescent Cell Viability Assay; type: functional, cell-based; settings: Homo sapiens, OCI-Ly10, 96 h
# [12] = Volume of distribution at steady state in dog at 0.2 mg/kg, iv by LC-MS/MS analysis; type: ADME, organism-based, Canis lupus familiaris; settings: in vivo, read-out: Vdss
# [13] = Oral bioavailability in dog at 2.1 mg/kg by LC-MS/MS analysis; type: ADME, organism-based, Canis lupus familiaris; settings: in vivo
# [14] = target: T2, Cereblon/Ikaros (Homo sapiens, UniProt Q96SW2+Q13422); experiment: PROTAC activity at CRBN/Ikaros in human OCI-Ly10 cells assessed as induction of Ikaros degradation measured after 24 hrs by MSD assay; type: cell-based
# [15] = Volume of distribution at steady state in rat at 2 mg/kg, iv by LC-MS/MS analysis; type: ADME, organism-based; settings: in vivo, read-out: Vdss
# [16] = Passive permeability of the compound in wild type MDCK cells across apical to basolateral side at 1 uM measured for 120 mins by LC-MS/MS analysis; type: ADME, cell-based, Canis lupus familiaris; settings: dog, read-out: permeability
# [17] = target: T3, Protein cereblon/Zinc finger protein Aiolos (Homo sapiens, UniProt Q96SW2+Q9UKT9); experiment: PROTAC activity at CRBN/Aiolos in human OCI-Ly10 cells assessed as induction of Aiolos degradation measured after 24 hrs by MSD assay; type: cell-based
# Target sequence in this assay (Q96SW2 whole entry): as the sequence (Q96SW2 whole entry, looked up) above
# Target sequence in this assay (Q9UKT9 whole entry): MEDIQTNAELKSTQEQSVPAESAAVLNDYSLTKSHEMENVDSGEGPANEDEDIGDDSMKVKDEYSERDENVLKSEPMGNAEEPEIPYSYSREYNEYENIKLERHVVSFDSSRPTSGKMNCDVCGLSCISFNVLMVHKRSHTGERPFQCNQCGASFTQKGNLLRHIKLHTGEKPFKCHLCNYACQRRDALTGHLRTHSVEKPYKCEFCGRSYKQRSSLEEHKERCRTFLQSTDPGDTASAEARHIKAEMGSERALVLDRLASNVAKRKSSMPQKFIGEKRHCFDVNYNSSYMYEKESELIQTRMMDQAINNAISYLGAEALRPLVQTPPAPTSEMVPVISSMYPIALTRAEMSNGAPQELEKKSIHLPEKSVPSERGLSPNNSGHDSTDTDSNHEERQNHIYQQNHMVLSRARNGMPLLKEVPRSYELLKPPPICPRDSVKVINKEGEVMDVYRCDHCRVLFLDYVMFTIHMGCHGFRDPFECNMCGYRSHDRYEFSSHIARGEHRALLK
# [18] = Metabolic stability in rat hepatocyte assessed as intrinsic clearance measured per million cells; type: ADME, cell-based; settings: hepatocytes, read-out: CLH
# [19] = Clearance in rat at 2 mg/kg, iv by LC-MS/MS analysis; type: ADME, organism-based; settings: in vivo
# [20] = system: PBMC; experiment: Downregulation of IRAK4 expression in human PBMC cells at 100 nM measured after 24 hrs by TMT based quantitative proteomics analysis; type: functional, cell-based
# [21] = system: OCI-Ly10; experiment: Antitumor activity against human OCI-LY10 cells xenografted in CB-17.SCID mouse model assessed as tumor growth regression at 3 mg/kg, po QD dosed measured after 38 days; type: functional, organism-based; settings: time 38.0 day
# [22] = target: T2, Cereblon/Ikaros; experiment: PROTAC activity at CRBN/Ikaros in human OCI-Ly10 cells assessed as maximum degradation at 41 nM measured within 2 hrs; type: cell-based
# [23] = Metabolic stability in dog liver microsomes assessed as intrinsic clearance; type: ADME, Canis lupus familiaris, Microsome; settings: read-out: CLH
# [24] = Volume of distribution at steady state in Non human primate at 0.2 mg/kg, iv by LC-MS/MS analysis; type: ADME, organism-based; settings: primates, in vivo, read-out: Vdss
# [25] = Oral bioavailability in mouse at 10 mg/kg by LC-MS/MS analysis; type: ADME, organism-based; settings: in vivo
# [26] = Half life in Non human primate at 0.2 mg/kg, iv by LC-MS/MS analysis; type: ADME, organism-based; settings: primates, in vivo
# [27] = system: PBMC; experiment: Effect on IKZF3 expression in human PBMC cells at 100 nM measured after 24 hrs by TMT based quantitative proteomics analysis; type: functional, cell-based
# [28] = target: T1, Protein cereblon/Interleukin-1 receptor-associated kinase 4; experiment: PROTAC activity at CRBN/IRAK4 in human OCI-Ly10 cells assessed as induction of IRAK4 degradation measured after 24 hrs by MSD assay; type: cell-based
# Target sequence in this assay (Q9NWZ3 whole entry): as the sequence (Q9NWZ3 whole entry, looked up) above
# Target sequence in this assay (Q96SW2 whole entry): as the sequence (Q96SW2 whole entry, looked up) above
# [29] = AUC in Non human primate at 2.1 mg/kg, po by LC-MS/MS analysis; type: ADME, organism-based; settings: primates, in vivo
# [30] = system: PBMC; experiment: Effect on GSPT1 expression in human PBMC at 100 nM measured after 24 hrs by TMT based quantitative proteomics analysis; type: functional, cell-based
# [31] = Volume of distribution at steady state in mouse at 2 mg/kg, iv by LC-MS/MS analysis; type: ADME, organism-based; settings: in vivo, read-out: Vdss
# [32] = system: PBMC; experiment: Downregulation of FGD2 expression in human PBMC cells at 100 nM measured after 24 hrs by TMT based quantitative proteomics analysis; type: functional, cell-based
# [33] = system: OCI-Ly10; experiment: […] of […] expression in human OCI-Ly10 cells at 60 nM measured after 2 to 8 hrs by TMT based quantitative proteomics analysis; type: functional, cell-based; settings: time 2-8 hrs
# [34] = Metabolic stability in Non human primate hepatocyte assessed as intrinsic clearance measured per million cells; type: ADME, cell-based; settings: primates, hepatocytes; read-out: CLH
# [35] = AUC in mouse at 10 mg/kg, po by LC-MS/MS analysis; type: ADME, organism-based; settings: in vivo
# [36] = system: OCI-Ly10; experiment: Downregulation of FGD2 expression in human OCI-Ly10 cells at 60 nM measured after 2 to 8 hrs by TMT based quantitative proteomics analysis; type: functional, cell-based; settings: time 2-8 hrs
# [37] = system: OCI-Ly10; experiment: Downregulation of LPXN expression in human OCI-Ly10 cells at 60 nM measured after 2 to 8 hrs by TMT based quantitative proteomics analysis; type: functional, cell-based; settings: time 2-8 hrs
# [38] = system: OCI-Ly10; experiment: […] of IKZF3 expression in human OCI-Ly10 cells at 60 nM measured after 2 to 8 hrs by TMT based quantitative proteomics analysis; type: functional, cell-based; settings: time 2-8 hrs
# [39] = Clearance in dog at 0.2 mg/kg, iv by LC-MS/MS analysis; type: ADME, organism-based, Canis lupus familiaris; settings: in vivo
# [40] = Metabolic stability in dog hepatocyte assessed as intrinsic clearance measured per million cells; type: ADME, cell-based, Canis lupus familiaris; settings: hepatocytes, read-out: CLH
# [41] = system: PBMC; experiment: Effect on ZFP91 expression in human PBMC cells at 100 nM measured after 24 hrs by TMT based quantitative proteomics analysis; type: functional, cell-based
# [42] = system: PBMC; experiment: Effect on WIZ expression in human PBMC cells at 100 nM measured after 24 hrs by TMT based quantitative proteomics analysis; type: functional, cell-based
# [43] = AUC in rat at 10 mg/kg, po by LC-MS/MS analysis; type: ADME, organism-based; settings: in vivo, read-out: AUC
# [44] = target: T3, Protein cereblon/Zinc finger protein Aiolos; experiment: PROTAC activity at CRBN/Aiolos in human OCI-Ly10 cells assessed as maximum degradation at 41 nM measured within 2 hrs; type: cell-based
# Target sequence in this assay (Q96SW2 whole entry, looked up): as above
# Target sequence in this assay (Q9UKT9 whole entry, looked up): as the sequence (Q9UKT9 whole entry) above
# [45] = Metabolic stability in human hepatocyte assessed as intrinsic clearance measured per million cells; type: ADME, cell-based; settings: hepatocytes, read-out: CLH
# [46] = system: OCI-Ly10; experiment: Antitumor activity against human OCI-LY10 cells xenografted in CB-17.SCID mouse model assessed as tumor growth regression at 10 to 30 mg/kg, po QD dosed measured after 38 days relative to control; type: functional; settings: dose 10-30 mg/kg, time 38 day
# [47] = system: OCI-Ly10; experiment: Downregulation of […] expression in human OCI-Ly10 cells at 60 nM measured after 2 to 8 hrs by TMT based quantitative proteomics analysis; type: functional, cell-based; settings: time 2-8 hrs
# [48] = Metabolic stability in mouse liver microsomes assessed as intrinsic clearance; type: ADME, Microsome; settings: read-out: CLH
# [49] = Oral bioavailability in Non human primate at 2.1 mg/kg by LC-MS/MS analysis; type: ADME, organism-based; settings: primates, in vivo
# [50] = Half life in rat at 2 mg/kg, iv by LC-MS/MS analysis; type: ADME, organism-based; settings: in vivo
# [51] = system: PBMC; experiment: Downregulation of LPXN expression in human PBMC cells at 100 nM measured after 24 hrs by TMT based quantitative proteomics analysis; type: functional, cell-based
# [52] = Oral bioavailability in rat at 10 mg/kg by LC-MS/MS analysis; type: ADME, organism-based; settings: in vivo
# [53] = Clearance in mouse at 2 mg/kg, iv by LC-MS/MS analysis; type: ADME, organism-based; settings: in vivo
# T2 sequence (Q96SW2 whole entry): as the sequence (Q96SW2 whole entry, looked up) above
# T2 sequence (Q13422 whole entry): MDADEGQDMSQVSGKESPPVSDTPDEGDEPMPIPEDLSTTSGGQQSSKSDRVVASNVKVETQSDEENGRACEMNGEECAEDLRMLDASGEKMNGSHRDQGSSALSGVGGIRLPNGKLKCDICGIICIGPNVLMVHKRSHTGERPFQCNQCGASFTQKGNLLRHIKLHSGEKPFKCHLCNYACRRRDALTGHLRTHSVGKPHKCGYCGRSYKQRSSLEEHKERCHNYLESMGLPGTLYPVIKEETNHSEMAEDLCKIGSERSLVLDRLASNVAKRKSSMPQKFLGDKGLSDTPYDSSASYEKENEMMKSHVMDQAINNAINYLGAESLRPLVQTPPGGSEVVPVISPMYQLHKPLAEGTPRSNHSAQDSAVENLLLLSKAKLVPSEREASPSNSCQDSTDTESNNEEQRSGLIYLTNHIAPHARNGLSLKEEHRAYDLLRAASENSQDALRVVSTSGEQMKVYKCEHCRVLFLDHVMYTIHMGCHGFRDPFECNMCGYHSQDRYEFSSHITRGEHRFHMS
compound,measurement,setting,value
CC(C)(O)c1cc2nc([C@H]3CC[C@H](CN4CC5(CC(CCNc6cccc7c6C(=O)N(C6CCC(=O)NC6=O)C7=O)C5)C4)CC3)sc2cc1NC(=O)c1cccc(C(F)(F)F)n1 (stereo partly drawn) [ZOMIRADOMIDE],microsomal CLint,[1],8.6 µL/min/mg
same,half-life,[2],28 h
same,AUC,[3],0.46 µM·h
same,clearance,[4],4.5 mL/min/kg
same,half-life,[5],8.6 h
same,Activity,[6],inactive
same,Activity,[7],Active
same,Activity,[8],Active
same,Activity,[9],Active
same,Activity,[10],100%
same,IC50,[11],11 nM
same,Vd,[12],29 L/kg
same,bioavailability,[13],21%
same,DC50,[14],1 nM
same,Vd,[15],15 L/kg
same,"Papp A→B at 2 h, 1 µM",[16],1.3 ×10⁻⁶ cm/s
same,DC50,[17],1 nM
same,hepatocyte CLint,[18],0.8 µL/min/1e6 cells
same,clearance,[19],9.1 mL/min/kg
same,Activity,[20],Active
same,Activity,[21],Active
same,Activity,[22],Active
same,microsomal CLint,[23],4.2 µL/min/mg
same,Vd,[24],5.8 L/kg
same,bioavailability,[25],19%
same,half-life,[26],16.4 h
same,Activity,[27],Active
same,DC50,[28],6 nM
same,AUC,[29],3.6 µM·h
same,Activity,[30],inactive
same,Vd,[31],7.5 L/kg
same,Activity,[32],Active
same,Activity,[33],Active
same,hepatocyte CLint,[34],2.7 µL/min/1e6 cells
same,AUC,[35],2.8 µM·h
same,Activity,[36],Active
same,Activity,[37],Active
same,Activity,[38],Active
same,clearance,[39],14 mL/min/kg
same,hepatocyte CLint,[40],2.3 µL/min/1e6 cells
same,Activity,[41],Active
same,Activity,[42],Active
same,AUC,[43],2.7 µM·h
same,Activity,[44],Active
same,hepatocyte CLint,[45],3.5 µL/min/1e6 cells
same,Activity,[46],100%
same,Activity,[47],Active
same,microsomal CLint,[48],4 µL/min/mg
same,bioavailability,[49],42%
same,half-life,[50],17 h
same,Activity,[51],Active
same,bioavailability,[52],15%
same,clearance,[53],11 mL/min/kg
